Measured values from PMC5652740, “Inhibition of HIV-1 infection in humanized mice and metabolic stability of protein phosphatase-1-targeting small molecule 1E7-03” (Oncotarget, 2017).

Tests used:
HIV-1 env and gag mRNA = HIV-1 env and gag mRNA expression by real-time RT-PCR in infected CEM T cells; assay type: cell-based; details: 10 μM 1E7-03, DP1, DP3; 5 μM AZT, 3TC; in words
Description: For quantitative analysis of HIV-1 RNA, CEM T cells were infected with HIV-1-LUC-G virus. Cells were treated with 10 μM 1E7-03, 10 μM DP1, 10 μM DP3, 5 μM AZT or 5 μM 3TC and control cells were untreated or treated with DMSO. Total RNA was isolated using Trizol Reagent (Invitrogen, Carlsbad, CA) according to the manufacturer's protocol. Total RNA (100 ng) was reverse transcribed to cDNA using Superscript™ RT-PCR kit (Invitrogen, Carlsbad, CA). Hexamers and oligo-dT were used as primers. For real-time PCR analysis, cDNA was amplified using Roche LightCycler 480 (Roche Diagnostics) and SYBR Green1 Master mix (Roche Diagnostics). PCR was run for 45 cycles and each cycle included denaturation at 95°C for 10 seconds, annealing at 60°C for 10 seconds, and extension at 72°C for 10 seconds. Quantification of env and gag was carried using 18S RNA as a normalization standard. Quantification of housekeeping genes, β-actin and RSP13 was carried relative to 18S RNA. Mean Cp values were determined and ΔΔCt method was used to calculate relative expression levels. Unpaired t-test was used to test statistical significance.
The following primer sequences were used: env, forward - […], reverse-[…]; gag, forward- […], reverse- […]; β-actin, forward- […], reverse-[…]; RSP13, forward- […], reverse- […]; and 18SrRNA, forward- […], reverse- […].

[1] = molecular target: T1, Recombinant PP1 (human PP1α residues 7–300) (Homo sapiens, UniProt P62136); assay: Surface plasmon resonance direct binding to immobilized PP1; details: SPR; for PP1 WT KD (M): 1:1 binding model, 25°C
T1 construct: human PP1α (residues 7–300); His; made in house; host or cells: BL21 (DE3) Escherichia coli, co-expressed with GroEL/GroES chaperones
T1 sequence (P62136 7-300): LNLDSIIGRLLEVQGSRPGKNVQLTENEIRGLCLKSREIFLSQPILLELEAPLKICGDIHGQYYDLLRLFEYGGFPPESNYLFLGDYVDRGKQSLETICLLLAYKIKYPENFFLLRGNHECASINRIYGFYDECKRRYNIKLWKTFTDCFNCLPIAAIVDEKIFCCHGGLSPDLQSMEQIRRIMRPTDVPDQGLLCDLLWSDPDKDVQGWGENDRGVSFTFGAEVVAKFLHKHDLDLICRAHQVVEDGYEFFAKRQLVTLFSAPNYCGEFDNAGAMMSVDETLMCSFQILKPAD
Description: PP1 was purified as previously described. BL21 (DE3) Escherichia coli cells (Invitrogen, Carlsbad, CA, USA) were -transformed with a vector expressing human PP1α (residues 7–300) and pGR07, which expresses GroEL/[…] chaperones (both gifts from Dr Mathieu Bollen and Monique Beullens, KU Leuven, Belgium). The cells were grown in media supplemented with 1 mM MnCl2 at 30°C to an A600 =0.5. Arabinose (2 g per L) was added to induce expression of the GroEL/GroES chaperones. When A600 =1 was reached, the cells were transferred to 10°C and PP1 expression was induced with 0.1 mM Isopropyl β-D-1-thiogalactopyranoside for 20 hrs. Harvested cells were lysed using sonication in a solution containing in 50 mM Tris-HCl (pH 8.0), 5 mM imidazole, 700 mM NaCl, 1 mM MnCl2, 0.1% Triton X-100 (v/v) and protease inhibitors. His-tagged PP1 was purified using a Ni-NTA IMAC column (Qiagen, Valencia, CA, USA). Purified PP1 was dialyzed and stored at −70°C in 50 mM Tris-HCl (pH 8.0), 5 mM imidazole, 700 mM NaCl and 1 mM MnCl2. PP1 activity was then assayed as previously described.
The SPR measurements were conducted on Biacore T200 instrument (GE Healthcare, Piscataway, NJ) at 25°C. Recombinant PP1 was immobilized on a CM5 chip by amine coupling (GE Healthcare). PP1 (200 nM) was captured on flow cell 2 in 10 mM acetate buffer, pH 5.0, supplemented with 2 mM MnCl2. […] Flow cell 1 was used as a reference surface to subtract background signal. Also injections of the buffer alone were used to provide double reference subtraction. […] For binding and kinetics experiments, all compounds were diluted in the running buffer, at 40 μM, 20 μM, 10 μM, 5 μM, 2.5 μM, 1.25 μM and 0 μM and then passed over the two flow cells at a flow rate of 100 μl/min for 60 sec. The number of response units was recorded after the subtraction of the reference flow cell's value (Fc2-1). Two repetitions were performed for each injection. Data were analyzed using the BiaEvaluation software of Biacore with a 1:1 binding model. […] All the small molecular weight compounds were used at 1 μM.

[2] = Pharmacokinetic analysis in mice after i.p. injection; assay type: in vivo; details: male, BALB/cJ, ip, mouse plasma after i.p. 100 mg/kg DP1-07; for AUC(0-t) / MRT last / half-life / Tmax: parent and products DP1-07P1, DP1-07P2; for Cmax: parent and products DP1-07P1, DP1-07P2 (quantified with DP1 and DP3 calibration curves); for Tmax: mouse, plasma, 100 mg/kg
Description: The animal facilities and protocols were approved by Howard University Institutional Animal Care and Use Committee (IACUC). All experimental procedures were in accordance with the NIH Guidelines for the Care and Use of Laboratory Animals. BALB/cJ male mice (8 weeks old, 25–30 g) were purchased from Jackson Laboratory (Bar Harbor, ME, USA) and housed under pathogen-free conditions in HEPA-filtered cages and kept on a 12 h light/dark cycle. Compounds were administered to mice via intraperitoneal (i.p.) injection with maximum achievable doses of 30 mg/kg 1E7-03 (100 μl injection of 8 mM 1E7-03 in 80% DMSO/20% saline) and 100 mg/kg DP1-07 (100 μl injection of 100 mM DP1-07 in 40% propylene glycol/10% DMSO/50% saline). Blood samples were collected at different time points (15 min, 30 min, 1 hr, 3 hr, 6 hrs and 24 hrs) for each group (n=3 mice per group). For each sample, 20 μl of plasma was mixed with 80 μl cold acetone, and centrifuged at 13,000 rpm for 5 min. The supernatant was transferred to a clean test tube and dried in a SpeedVac concentrator. The residue was re-constituted in 50 μl of acetonitrile for LC-MS analysis. Calibration curves were prepared by spiking 1E7-03, DP1, DP3 and DP1-07 into the drug-free mouse plasma and subjected to similar sample extraction procedures. The plasma concentration–time profile of each analyte was constructed and pharmacokinetic parameters were determined by non-compartmental method using Phoenix WinNonlin Version 5.3 (Pharsight Corporation, Mountain View, CA).
A 10 μl aliquots from each sample were loaded to a LC-20AD nano HPLC system (Shimadzu Corporation, Columbia, MD, USA) coupled to LTQ XL Orbitrap mass spectrometer (Thermo Fisher Scientific) with the installed Xcalibur software (version 2.0.7, Thermo Fisher Scientific). Liquid chromatography was carried out on an in-house made nano-HPLC column (Polymicro Technologies Inc., Phoenix, AZ, USA) packed with reverse phase PolySulfoethyl A, 5μM, 200 Å (PolyLC Inc., Columbia, MD, USA). Mobile phase A was 0.1% formic acid in water and mobile phase B - 0.1% formic acid in acetonitrile. The elution was performed at a flow rate of 600 nl/min over 40 min using a multisegment linear gradient of mobile phase B as follows: 0–6.02 min, 1% B; 6.02–6.11 min, 1–2% B; 6.11–20 min, 2−80% B; 20–25 min, 80% B; 25–30 min, 80–85% B; 30–31 min, […]; 31–40 min, 2% B (v/v). The Orbitrap was operated under data-dependent acquisition mode. The spray voltage, capillary temperature and capillary voltage were set to 2.0 kV, 200 °C, and 39.5 V, respectively. Full-scan mass spectra were acquired in Orbitrap over 150−1500 m/z with a resolution of 30 000, followed by MS^n scans by CID activation mode. The precursor ions were fragmented with collision energy of 18 with activation Q of 0.25 and an activation time of 30 ms. Dynamic exclusion was enabled with a repeat count of 2, a repeat duration of 15 s, exclusion duration of 20 s, an exclusion list size of 50. The mass spectrometer was also operated in NL scan of m/z 18.01, 45.05, 71.03 and 72.02 and MRM mode. The MRM transitions were controlled by a segmented program in order to short the scan cycle and increase sensitivity.

Compound | HIV-1 env mRNA expression (HIV-1 env and gag mRNA) | HIV-1 gag mRNA expression (HIV-1 env and gag mRNA) | AUC(0-t) [2] [µM·h] | MRT last [2] [h] | half-life [2] [h] | Cmax [2] [µM] | Tmax [2] [h] | further results
Nc1ccn([C@@H]2CS[C@H](CO)O2)c(=O)n1 [3TC, lamivudine, reference compound] | strong inhibition | strong inhibition |  |  |  |  |  | 
pRb-Tat mutant: mutant pRb-Tat peptide with QACA mutation in the RVxF motif (HIPRSPYKFPSSPLRKKCCFHCQACAITK) [reference compound] |  |  |  |  |  |  |  | PP1 WT KD (M) [1]: No binding; PP1 WT KD (M) ([1]; listed as mutant pRb-Tat): did not bind
Cc1cn([C@H]2C[C@H](N=[N+]=[N-])[C@@H](CO)O2)c(=O)[nH]c1=O [AZT, azidothymidine, reference compound] | strong inhibition | strong inhibition |  |  |  |  |  | 
COc1ccc(/C=C2\CCCc3c2nc2ccccc2c3C(=O)OC(C)C(=O)O)cc1OC (centres unmarked) [DP1-07P1] |  |  | 124 | 10.5 | 13.4 | 7.54 | 6 | 
CC[C@H](C)[C@H](NC(=O)[C@H](Cc1ccccc1)NC(=O)[C@H](CS)NC(=O)[C@@H](NC(=O)[C@H](CCC(N)=O)NC(=O)[C@H](CS)NC(=O)[C@H](Cc1c[nH]cn1)NC(=O)[C@H](Cc1ccccc1)NC(=O)[C@H](CS)NC(=O)[C@H](CS)NC(=O)[C@H](CCCCN)NC(=O)[C@H](CCCCN)NC(=O)[C@H](CCCNC(=N)N)NC(=O)[C@H](CC(C)C)NC(=O)[C@@H]1CCCN1C(=O)[C@H](CO)NC(=O)[C@H](CO)NC(=O)[C@@H]1CCCN1C(=O)[C@H](Cc1ccccc1)NC(=O)[C@H](CCCCN)NC(=O)[C@H](Cc1ccc(O)cc1)NC(=O)[C@@H]1CCCN1C(=O)[C@H](COP(=O)(O)O)NC(=O)[C@H](CCCNC(=N)N)NC(=O)[C@@H]1CCCN1C(=O)[C@@H](NC(=O)[C@@H](N)Cc1c[nH]cn1)[C@@H](C)CC)C(C)C)C(=O)N[C@H](C(=O)N[C@@H](CCCCN)C(=O)O)[C@@H](C)O [pRb-Tat, reference compound] |  |  |  |  |  |  |  | times higher binding ability than 1E7-03, DP1 and DP3 [1]: 20-40 times
COc1ccc(/C=C2\CCCc3c2nc2ccccc2c3C(=O)O)cc1OC [DP1-07P2] |  |  | 288 | 8.86 | 4.66 | 23.7 | 6 | 
